Source: PubChem BioAssay AID743168 (Sanford-Burnham Center for Chemical Genomics, 2013)
Calls of active or inactive are those of the source.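 How the source made its calls: active means compounds whose IC50 here is at most triple their IC50 in the earlier fluorescent lipid screen; inactive means the rest.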

molecular target: Diacylglycerol O-acyltransferase 1 (Homo sapiens) (UniProt O75907); assay: DGAT-1 acyltransferase activity inhibition, radiometric – biochemical, recombinant hDGAT-1, [14C]-TAG formation, radiolabel, counter-screen for TAG accumulation inhibitor project, dose response (AID 743168); conditions: scintillation
Sequence (O75907 whole entry, looked up): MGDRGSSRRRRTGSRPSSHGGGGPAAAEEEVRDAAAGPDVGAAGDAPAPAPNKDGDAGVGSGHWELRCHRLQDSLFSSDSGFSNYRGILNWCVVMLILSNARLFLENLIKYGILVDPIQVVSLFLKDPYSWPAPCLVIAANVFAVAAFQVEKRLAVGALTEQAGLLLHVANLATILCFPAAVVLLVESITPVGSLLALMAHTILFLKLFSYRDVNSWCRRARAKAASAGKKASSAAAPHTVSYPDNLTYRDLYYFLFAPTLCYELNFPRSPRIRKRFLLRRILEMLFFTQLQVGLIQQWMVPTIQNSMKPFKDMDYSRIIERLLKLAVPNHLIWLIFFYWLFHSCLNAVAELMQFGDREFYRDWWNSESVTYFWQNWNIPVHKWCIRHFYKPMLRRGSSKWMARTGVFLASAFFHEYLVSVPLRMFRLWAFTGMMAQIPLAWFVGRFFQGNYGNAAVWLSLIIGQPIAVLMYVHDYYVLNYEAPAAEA

Row | IC50 | Structure (SMILES)
1 | > 50 µM (inactive) | O=C(Nc1cccc(-c2nc3ccccc3[nH]2)c1)c1cccc2c1C(=O)N(CCOc1ccccc1)C2
2 | > 50 µM (inactive) | O=C(Nc1cccc(-c2nc3ccccc3[nH]2)c1)c1cccc2c1C(=O)N(CC1CC1)C2
3 | > 50 µM (inactive) | COCCN1Cc2cccc(C(=O)Nc3cccc(-c4nc5ccccc5[nH]4)c3)c2C1=O
4 | > 50 µM (inactive) | CCCCN1Cc2cccc(C(=O)Nc3cccc(-c4nc5ccccc5[nH]4)c3)c2C1=O
5 | > 50 µM (inactive) | CCOCCN1Cc2cccc(C(=O)Nc3cccc(-c4nc5ccccc5[nH]4)c3)c2C1=O
